In ChEMBL document CHEMBL6096686, “Lanosterol 14α-Demethylase (CYP51)/Heat Shock Protein 90 (Hsp90) Dual Inhibitors for the Treatment of Invasive Candidiasis” (J Med Chem, 2025):
≈ marks a conversion by molar mass, not a printed value. Calls of active or inactive are those of the source. The calls are words filed in the database; no cut-off is given here.

Legend:
[1] = tested on: Nakaseomyces glabratus; test: Antifungal activity against Candida glabrata 7804 incubated for 48 hrs by CLSI based liquid microdilution technique; assay type: functional
[2] = tested on: Candida albicans; test: Synergistic antifungal activity against Candida albicans SC5314 incubated for 48 hrs in presence of FLC by CLSI based liquid microdilution technique; assay type: functional
[3] = Cytotoxicity against human L02 cells measured after 72 hrs by CCK8 assay; assay type: toxicity, cell-based
[4] = tested on: Pichia kudriavzevii; test: Antifungal activity against Candida krusei 10153 incubated for 48 hrs by CLSI based liquid microdilution technique; assay type: functional
[5] = tested on: Candida albicans; test: Antifungal activity against Candida albicans SC5314 infected in immunosuppressed ICR mouse assessed as reduction in fungal burden in kidney at 10 mg/kg, ip treated for 5 days consecutively; assay type: functional, organism-based; conditions: time 5.0 day
[6] = molecular target: Heat shock protein 90 homolog (Candida albicans (strain SC5314 / ATCC MYA-2876) (Yeast), UniProt P46598); test: Inhibition of HSP90 extracted from Candida albicans SC5314 lysate using FITC-Geldanamycin as substrate incubated for 6 hrs by fluorescence polarization assay; assay type: subcellular
Chain of Heat shock protein 90 homolog (P46598 whole entry): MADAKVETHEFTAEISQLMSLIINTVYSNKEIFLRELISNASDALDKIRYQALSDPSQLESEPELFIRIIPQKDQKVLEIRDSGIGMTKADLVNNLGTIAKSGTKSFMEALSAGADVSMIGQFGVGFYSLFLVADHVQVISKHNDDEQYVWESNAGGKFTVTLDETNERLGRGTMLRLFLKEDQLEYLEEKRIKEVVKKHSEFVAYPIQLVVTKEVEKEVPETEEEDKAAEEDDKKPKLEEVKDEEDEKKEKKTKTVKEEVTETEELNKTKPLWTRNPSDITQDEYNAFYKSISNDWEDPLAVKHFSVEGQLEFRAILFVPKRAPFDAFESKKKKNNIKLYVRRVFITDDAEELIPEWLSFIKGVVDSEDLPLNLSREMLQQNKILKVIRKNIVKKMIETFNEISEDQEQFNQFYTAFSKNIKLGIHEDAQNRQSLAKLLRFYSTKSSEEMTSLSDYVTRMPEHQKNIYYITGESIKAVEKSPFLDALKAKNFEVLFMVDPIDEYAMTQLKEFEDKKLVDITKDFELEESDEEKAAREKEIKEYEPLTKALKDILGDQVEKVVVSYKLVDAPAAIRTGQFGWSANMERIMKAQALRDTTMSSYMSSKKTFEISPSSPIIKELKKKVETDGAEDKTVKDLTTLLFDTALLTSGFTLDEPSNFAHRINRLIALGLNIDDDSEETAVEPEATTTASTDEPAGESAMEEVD

[7] = tested on: Candida albicans; test: Inhibition of biofilm formation in Candida albicans SC5314 at 4 ug/ml incubated for 24 hrs by XTT reduction method relative to control; assay type: functional; conditions: dose 4.0 µg/ml
[8] = tested on: Cryptococcus neoformans; test: Synergistic antifungal against Cryptococcus neoformans H99 incubated for 72 hrs in presence of FLC by CLSI based liquid microdilution technique; assay type: functional
[9] = tested on: Cryptococcus neoformans; test: Antifungal activity against Cryptococcus neoformans H99 incubated for 72 hrs by CLSI based liquid microdilution technique; assay type: functional
[10] = tested on: Candida albicans; test: Synergistic antifungal activity against Candida albicans SC5314 infected in immunosuppressed ICR mouse assessed as reduction in fungal burden in kidney at 10 mg/kg, ip treated for 5 days consecutively in presence of FLC; assay type: functional, organism-based; conditions: time 5.0 day
[11] = tested on: Nakaseomyces glabratus; test: Synergistic antifungal activity against Candida glabrata 7804 incubated for 48 hrs in presence of FLC by CLSI based liquid microdilution technique; assay type: functional
[12] = molecular target: Heat shock protein HSP90 (Homo sapiens, UniProt P07900+P08238); test: Inhibition of human HSP90 using FITC-Geldanamycin as substrate incubated for 6 hrs by fluorescence polarization assay; assay type: protein assay
[13] = molecular target: T1, Lanosterol 14-alpha demethylase (Candida albicans (strain SC5314 / ATCC MYA-2876) (Yeast), UniProt P10613); test: Inhibition of CYP51 in Candida albicans SC5314 assessed as decrease in ergosterol level at 4 ug/ml measured after 48 hrs by GC-MS analysis; conditions: at 4 µg/mL
T1 sequence (P10613 whole entry): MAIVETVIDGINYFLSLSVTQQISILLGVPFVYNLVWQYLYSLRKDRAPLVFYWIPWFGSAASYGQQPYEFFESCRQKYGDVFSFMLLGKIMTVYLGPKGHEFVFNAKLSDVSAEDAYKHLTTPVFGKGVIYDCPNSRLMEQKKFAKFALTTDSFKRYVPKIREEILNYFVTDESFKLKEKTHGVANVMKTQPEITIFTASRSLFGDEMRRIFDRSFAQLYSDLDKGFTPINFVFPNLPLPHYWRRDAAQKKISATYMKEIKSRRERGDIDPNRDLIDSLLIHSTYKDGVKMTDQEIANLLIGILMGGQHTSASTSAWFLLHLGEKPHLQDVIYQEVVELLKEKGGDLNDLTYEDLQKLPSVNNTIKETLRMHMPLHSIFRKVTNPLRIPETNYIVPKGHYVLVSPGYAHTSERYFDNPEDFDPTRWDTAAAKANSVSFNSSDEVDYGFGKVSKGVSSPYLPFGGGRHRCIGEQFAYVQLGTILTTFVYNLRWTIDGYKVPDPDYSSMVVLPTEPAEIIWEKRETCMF

[14] = Cytotoxicity against HUVEC cells measured after 72 hrs by CCK8 assay; assay type: toxicity, cell-based; conditions: human
[15] = tested on: Candida albicans; test: Antifungal activity against Candida albicans SC5314 incubated for 48 hrs by CLSI based liquid microdilution technique; assay type: functional
[16] = tested on: Pichia kudriavzevii; test: Synergistic antifungal activity against Candida krusei 10153 incubated for 48 hrs in presence of FLC by CLSI based liquid microdilution technique; assay type: functional
[17] = molecular target: T1, Lanosterol 14-alpha demethylase; test: Inhibition of CYP51 in Candida albicans SC5314 assessed as accumulation of eburicol at 4 ug/ml measured after 48 hrs by GC-MS analysis; conditions: at 4 µg/mL

SMILES	MIC80 [1] [mg/L]	fractional inhibitory concentration index (FICI) [2]	IC50 at 72 h [3] [µM]	MIC80 [4] [mg/L]	Activity [5]	IC50 [6] [µM]	inhibition [7]	fractional inhibitory concentration index (FICI) [8]	MIC80 [9] [mg/L]	Activity [10]	fractional inhibitory concentration index (FICI) [11]	IC50 [12] [µM]	inhibition (INH) [13]	IC50 at 72 h [14] [µM]	MIC80 [15] [mg/L]	fractional inhibitory concentration index (FICI) [16]	inhibition (INH) [17]
CCNC(=O)c1noc(-c2cc(-c3ccc(C)cc3)c(O)cc2O)c1-c1ccc(CN2CCOCC2)cc1	> 64	0.13	0.68	> 64	inactive	0.39	Active; Exhibited Little Inhibitory Effect	0.31	32 (≈ 62.3 µM)	Active	0.5	1.54	Not_active	0.68	32 (≈ 62.3 µM)	2	
OC(Cn1cncn1)(Cn1cncn1)c1ccc(F)cc1F [FLUCONAZOLE]	16 (≈ 52.2 µM)			64 (≈ 209 µM)					1 (≈ 3.27 µM)						0.5 (≈ 1.63 µM)		Active
CCN(C(=O)c1cc(-c2ccc(C)cc2)c(O)cc1O)c1ccc(CN2CCN(C(=O)CCCCCOc3ccc(CN(C)CC(O)(Cn4cncn4)c4ccc(F)cc4F)cc3)CC2)cc1 (centres undefined)	16 (≈ 17.5 µM)			32 (≈ 34.9 µM)					8 (≈ 8.73 µM)						8 (≈ 8.73 µM)		
CCN(C(=O)c1cc(-c2ccc(C)cc2)c(OCc2ccccc2)cc1OCc1ccccc1)c1ccc(CN2CCN(CC(O)(Cn3cncn3)c3ccc(F)cc3F)CC2)cc1 (centres undefined)	16 (≈ 18.5 µM)			> 64					> 64						> 64		
